# Assay results published in ChEMBL document CHEMBL3885881, “DrugMatrix”.
# Species on record: Rattus norvegicus
# Assay: DrugMatrix - Regimen: Daily Repeat
# Assay type: toxicity, organism-based, Sprague-Dawley
# Design: regimen Daily Repeat, gender Male, age 6-8 weeks
# Details: in vivo, po, route oral GAVAGE, vehicle 100 % WATER; for ABSOLUTE BASOPHIL / ABSOLUTE EOSINOPHIL / ABSOLUTE LYMPHOCYTE / ABSOLUTE MONOCYTE / ABSOLUTE SEGMENTED NEUTROPHIL / BASOPHIL / EOSINOPHIL / ERYTHROCYTE COUNT / HEMATOCRIT / HEMOGLOBIN / LEUKOCYTE COUNT / LYMPHOCYTE / MEAN CORPUSCULAR HEMOGLOBIN / MEAN CORPUSCULAR HEMOGLOBIN CONCENTRATION / MEAN CORPUSCULAR VOLUME / MONOCYTE / NEUTROPHIL / NUCLEATED RED BLOOD CELLS / PLATELET COUNT: tissue Blood; for ALANINE AMINOTRANSFERASE / ALBUMIN / ALKALINE PHOSPHATASE / ASPARTATE AMINOTRANSFERASE / BLOOD UREA NITROGEN / CARBON DIOXIDE / CHLORIDE / CHOLESTEROL / CREATINE PHOSPHOKINASE / CREATININE / GLUCOSE / LACTATE DEHYDROGENASE / LIPASE / PHOSPHORUS / POTASSIUM / SODIUM / TOTAL BILIRUBIN / TOTAL PROTEIN / URIC ACID: tissue Plasma
# [1] = 0 mg/kg, 72 h, dose level Control, time 3 day
# [2] = 0 mg/kg, 120 h, dose level Control, time 5 day
# [3] = 33 mg/kg, 72 h, dose level Low, time 3 day
# [4] = 33 mg/kg, 120 h, dose level Low, time 5 day
smiles,measurement,setting,value
C1CCN2C[C@@H]3C[C@@H](CN4CCCC[C@@H]34)[C@H]2C1 [SPARTEINE],ABSOLUTE BASOPHIL,[1],0 CELLS/uL
same,ABSOLUTE EOSINOPHIL,[1],86.33 CELLS/uL
same,ABSOLUTE LYMPHOCYTE,[1],12090.17 CELLS/uL
same,ABSOLUTE MONOCYTE,[1],166.67 CELLS/uL
same,ABSOLUTE SEGMENTED NEUTROPHIL,[1],1090.17 CELLS/uL
same,BASOPHIL,[1],0%
same,EOSINOPHIL,[1],0.67%
same,ERYTHROCYTE COUNT,[1],5.57 x10E6/uL
same,HEMATOCRIT,[1],35.33%
same,HEMOGLOBIN,[1],13.83 G/DL
same,LEUKOCYTE COUNT,[1],13.43 x10E3/uL
same,LYMPHOCYTE,[1],89.83%
same,MEAN CORPUSCULAR HEMOGLOBIN,[1],24.88 pg
same,MEAN CORPUSCULAR HEMOGLOBIN CONCENTRATION,[1],39.15 G/DL
same,MEAN CORPUSCULAR VOLUME,[1],63.52 fL
same,MONOCYTE,[1],1.17%
same,NEUTROPHIL,[1],8.33%
same,NUCLEATED RED BLOOD CELLS,[1],0 /100WBC
same,PLATELET COUNT,[1],1181.33 x10E3/uL
same,ALANINE AMINOTRANSFERASE,[1],48.33 u/L
same,ALBUMIN,[1],4.1 G/DL
same,ALKALINE PHOSPHATASE,[1],395 u/L
same,ASPARTATE AMINOTRANSFERASE,[1],81.83 u/L
same,BLOOD UREA NITROGEN,[1],15.83 mg/dL
same,CARBON DIOXIDE,[1],24.17 mmol/L
same,CHLORIDE,[1],103.83 MEQ/L
same,CHOLESTEROL,[1],63.67 mg/dL
same,CREATINE PHOSPHOKINASE,[1],372.83 u/L
same,CREATININE,[1],0.18 mg/dL
same,GLUCOSE,[1],173.83 mg/dL
same,LACTATE DEHYDROGENASE,[1],188.33 u/L
same,LIPASE,[1],9.5 u/L
same,PHOSPHORUS,[1],11.95 mg/dL
same,POTASSIUM,[1],5.99 MEQ/L
same,SODIUM,[1],144.43 MEQ/L
same,TOTAL BILIRUBIN,[1],0.15 mg/dL
same,TOTAL PROTEIN,[1],5.95 G/DL
same,URIC ACID,[1],1.82 mg/dL
same,ABSOLUTE BASOPHIL,[2],0 CELLS/uL
same,ABSOLUTE EOSINOPHIL,[2],26.67 CELLS/uL
same,ABSOLUTE LYMPHOCYTE,[2],7583.83 CELLS/uL
same,ABSOLUTE MONOCYTE,[2],131.33 CELLS/uL
same,ABSOLUTE SEGMENTED NEUTROPHIL,[2],674.83 CELLS/uL
same,BASOPHIL,[2],0%
same,EOSINOPHIL,[2],0.33%
same,ERYTHROCYTE COUNT,[2],5.78 x10E6/uL
same,HEMATOCRIT,[2],36.48%
same,HEMOGLOBIN,[2],14.03 G/DL
same,LEUKOCYTE COUNT,[2],8.42 x10E3/uL
same,LYMPHOCYTE,[2],89.83%
same,MEAN CORPUSCULAR HEMOGLOBIN,[2],24.3 pg
same,MEAN CORPUSCULAR HEMOGLOBIN CONCENTRATION,[2],38.52 G/DL
same,MEAN CORPUSCULAR VOLUME,[2],63.15 fL
same,MONOCYTE,[2],1.67%
same,NEUTROPHIL,[2],8.17%
same,NUCLEATED RED BLOOD CELLS,[2],0 /100WBC
same,PLATELET COUNT,[2],1186.67 x10E3/uL
same,ALANINE AMINOTRANSFERASE,[2],50.17 u/L
same,ALBUMIN,[2],4.07 G/DL
same,ALKALINE PHOSPHATASE,[2],367.5 u/L
same,ASPARTATE AMINOTRANSFERASE,[2],81.67 u/L
same,BLOOD UREA NITROGEN,[2],16.17 mg/dL
same,CARBON DIOXIDE,[2],32.33 mmol/L
same,CHLORIDE,[2],101.5 MEQ/L
same,CHOLESTEROL,[2],65.33 mg/dL
same,CREATINE PHOSPHOKINASE,[2],255.33 u/L
same,CREATININE,[2],0.17 mg/dL
same,GLUCOSE,[2],139.33 mg/dL
same,LACTATE DEHYDROGENASE,[2],95 u/L
same,LIPASE,[2],10.5 u/L
same,PHOSPHORUS,[2],10.38 mg/dL
same,POTASSIUM,[2],6.11 MEQ/L
same,SODIUM,[2],145.55 MEQ/L
same,TOTAL BILIRUBIN,[2],0.17 mg/dL
same,TOTAL PROTEIN,[2],5.98 G/DL
same,URIC ACID,[2],0.93 mg/dL
same,ABSOLUTE BASOPHIL,[3],0 CELLS/uL
same,ABSOLUTE EOSINOPHIL,[3],58.33 CELLS/uL
same,ABSOLUTE LYMPHOCYTE,[3],13527.67 CELLS/uL
same,ABSOLUTE MONOCYTE,[3],237.33 CELLS/uL
same,ABSOLUTE SEGMENTED NEUTROPHIL,[3],1176.67 CELLS/uL
same,BASOPHIL,[3],0%
same,EOSINOPHIL,[3],0.33%
same,ERYTHROCYTE COUNT,[3],5.67 x10E6/uL
same,HEMATOCRIT,[3],36.13%
same,HEMOGLOBIN,[3],14 G/DL
same,LEUKOCYTE COUNT,[3],15 x10E3/uL
same,LYMPHOCYTE,[3],90%
same,MEAN CORPUSCULAR HEMOGLOBIN,[3],24.8 pg
same,MEAN CORPUSCULAR HEMOGLOBIN CONCENTRATION,[3],38.83 G/DL
same,MEAN CORPUSCULAR VOLUME,[3],63.9 fL
same,MONOCYTE,[3],1.67%
same,NEUTROPHIL,[3],8%
same,NUCLEATED RED BLOOD CELLS,[3],0.33 /100WBC
same,PLATELET COUNT,[3],1335 x10E3/uL
same,ALANINE AMINOTRANSFERASE,[3],50.67 u/L
same,ALBUMIN,[3],3.9 G/DL
same,ALKALINE PHOSPHATASE,[3],377.67 u/L
same,ASPARTATE AMINOTRANSFERASE,[3],91 u/L
same,BLOOD UREA NITROGEN,[3],15 mg/dL
same,CARBON DIOXIDE,[3],25.67 mmol/L
same,CHLORIDE,[3],102 MEQ/L
same,CHOLESTEROL,[3],61.33 mg/dL
same,CREATINE PHOSPHOKINASE,[3],251.67 u/L
same,CREATININE,[3],0.12 mg/dL
same,GLUCOSE,[3],152 mg/dL
same,LACTATE DEHYDROGENASE,[3],249 u/L
same,LIPASE,[3],9 u/L
same,PHOSPHORUS,[3],13.2 mg/dL
same,POTASSIUM,[3],6.44 MEQ/L
same,SODIUM,[3],143.4 MEQ/L
same,TOTAL BILIRUBIN,[3],0.13 mg/dL
same,TOTAL PROTEIN,[3],5.73 G/DL
same,URIC ACID,[3],1.43 mg/dL
same,ABSOLUTE BASOPHIL,[4],0 CELLS/uL
same,ABSOLUTE EOSINOPHIL,[4],62 CELLS/uL
same,ABSOLUTE LYMPHOCYTE,[4],7311 CELLS/uL
same,ABSOLUTE MONOCYTE,[4],83 CELLS/uL
same,ABSOLUTE SEGMENTED NEUTROPHIL,[4],677.33 CELLS/uL
same,BASOPHIL,[4],0%
same,EOSINOPHIL,[4],0.67%
same,ERYTHROCYTE COUNT,[4],5.58 x10E6/uL
same,HEMATOCRIT,[4],34.4%
same,HEMOGLOBIN,[4],13.3 G/DL
same,LEUKOCYTE COUNT,[4],8.13 x10E3/uL
same,LYMPHOCYTE,[4],90.33%
same,MEAN CORPUSCULAR HEMOGLOBIN,[4],23.87 pg
same,MEAN CORPUSCULAR HEMOGLOBIN CONCENTRATION,[4],38.67 G/DL
same,MEAN CORPUSCULAR VOLUME,[4],61.8 fL
same,MONOCYTE,[4],1%
same,NEUTROPHIL,[4],8%
same,NUCLEATED RED BLOOD CELLS,[4],0 /100WBC
same,PLATELET COUNT,[4],1046.67 x10E3/uL
same,ALANINE AMINOTRANSFERASE,[4],55.33 u/L
same,ALBUMIN,[4],3.93 G/DL
same,ALKALINE PHOSPHATASE,[4],372 u/L
same,ASPARTATE AMINOTRANSFERASE,[4],82.67 u/L
same,BLOOD UREA NITROGEN,[4],16.33 mg/dL
same,CARBON DIOXIDE,[4],31.67 mmol/L
same,CHLORIDE,[4],102.33 MEQ/L
same,CHOLESTEROL,[4],65.33 mg/dL
same,CREATINE PHOSPHOKINASE,[4],351.67 u/L
same,CREATININE,[4],0.16 mg/dL
same,GLUCOSE,[4],143.67 mg/dL
same,LACTATE DEHYDROGENASE,[4],104.67 u/L
same,LIPASE,[4],10 u/L
same,PHOSPHORUS,[4],10.67 mg/dL
same,POTASSIUM,[4],5.96 MEQ/L
same,SODIUM,[4],145.73 MEQ/L
same,TOTAL BILIRUBIN,[4],0.13 mg/dL
same,TOTAL PROTEIN,[4],5.97 G/DL
same,URIC ACID,[4],0.63 mg/dL
